Read-outs that look alike come from different tables or passages of the source.
Test system: Spodoptera littoralis (Egyptian cotton leaf worm)
Test: Spodoptera littoralis (Egyptian cotton leaf worm) feeding/contact activity assay, mortality on cotton leaf discs; synergy by COLBY formula
Assay type: in vivo
Excerpt: A synergistic effect exists whenever the action of an active ingredient combination is greater than the sum of the actions of the individual components. The action to be expected E for a given active ingredient combination obeys the so-called COLBY formula and can be calculated as follows (COLBY, S.R. “Calculating synergistic and antagonistic responses of herbicide combination”. Weeds, Vol. 15, pages 20-22 1967): • ppm=milligrams of active ingredient (a.i.) per liter • X=% action by first active ingredient using p ppm of the active ingredient • Y=% action by second active ingredient using q ppm of the active ingredient.
According to Colby, the expected (additive) action of active ingredients A+B using p+q ppm of active
If the action actually observed O is greater than the expected action E, then the action of the combination is super-additive, i.e. there is a synergistic effect. In mathematical terms, synergism corresponds to a positive value for the difference of (O-E). In the case of purely complementary addition of activities (expected activity), said difference (O-E) is zero. A negative value of said difference (O-E) signals a loss of activity compared to the expected activity.
The synergistic biological activity of combinations of component (A) and component (B) as disclosed herein was assessed using a Spodoptera littoralis (Egyptian cotton leaf worm) feeding/contact activity assay. Cotton leaf discs were placed onto agar in 24-well microtiter plates and sprayed with aqueous test solutions prepared from 10′000 ppm DMSO stock solutions. After drying the leaf discs were infested with L1 larvae. The samples were assessed for mortality 3 days after infestation.

[1] = Spodoptera littoralis, foliar, 72 h, read-out: Mortality (%) Observed (%)
[2] = single component alone at 7.8125 mg/L, 3 days after infestation
[3] = single component alone at 15.625 mg/L, 3 days after infestation
[4] = single component alone at 1.95312 mg/L, 3 days after infestation
[5] = single component alone at 3.90625 mg/L, 3 days after infestation
[6] = single component alone at 31.25 mg/L, 3 days after infestation
[7] = single component alone at 62.5 mg/L, 3 days after infestation
[8] = single component alone at 125 mg/L, 3 days after infestation
[9] = single component alone at 250 mg/L, 3 days after infestation

CC1(C)C(C=C(Cl)Cl)C1C(=O)OC(C#N)c1cccc(Oc2ccccc2)c1 (stereo not drawn) [B-46, alpha-cypermethrin]
mortality at 0.015625 µg/mL [1]: 0% | mortality at 0.03125 µg/mL [1]: 0% | mortality at 0.0625 µg/mL [1]: 0% | mortality at 0.125 µg/mL [1]: 0% | mortality at 0.25 µg/mL [1]: 0% | mortality at 0.5 µg/mL [1]: 60%

CCS(=O)(=O)c1cccnc1-c1cnc(OCC(F)(F)C(F)(F)F)cn1 [B-17, 2-(3-ethylsulfonyl-2-pyridyl)-5-(2,2,3,3,3-pentafluoropropoxy)pyrazine]
mortality at 0.0390625 µg/mL (Spodoptera littoralis, foliar, 72 h, single component alone at 0.0390625 mg/L, 3 days after infestation, read-out: Mortality (%) Observed (%)): 0% | mortality at 0.078125 µg/mL (Spodoptera littoralis, foliar, 72 h, single component alone at 0.078125 mg/L, 3 days after infestation, read-out: Mortality (%) Observed (%)): 0% | mortality at 0.15625 µg/mL (Spodoptera littoralis, foliar, 72 h, single component alone at 0.15625 mg/L, 3 days after infestation, read-out: Mortality (%) Observed (%)): 0% | mortality at 0.3125 µg/mL (Spodoptera littoralis, foliar, 72 h, single component alone at 0.3125 mg/L, 3 days after infestation, read-out: Mortality (%) Observed (%)): 0% | mortality at 0.625 µg/mL (Spodoptera littoralis, foliar, 72 h, single component alone at 0.625 mg/L, 3 days after infestation, read-out: Mortality (%) Observed (%)): 0% | mortality at 1.25 µg/mL (Spodoptera littoralis, foliar, 72 h, single component alone at 1.25 mg/L, 3 days after infestation, read-out: Mortality (%) Observed (%)): 0% | mortality at 2.5 µg/mL (Spodoptera littoralis, foliar, 72 h, single component alone at 2.5 mg/L, 3 days after infestation, read-out: Mortality (%) Observed (%)): 20%

CN/C(=N\[N+](=O)[O-])NCc1cnc(Cl)s1 [B-38, clothianidin]
mortality at 0.15625 µg/mL [1]: 0% | mortality at 0.3125 µg/mL [1]: 0% | mortality at 0.625 µg/mL [1]: 0% | mortality at 1.25 µg/mL [1]: 0% | mortality at 2.5 µg/mL [1]: 0%

CC1(NC(=O)c2cccc3nn(-c4cccnc4)cc23)CC1 [B-4, indazapyroxamet]
Mortality (%) Observed (%) [2]: 0% | Mortality (%) Observed (%) [3]: 0%

CCC(=O)NCc1ccc(C2=NO[C@@](c3cc(Cl)c(F)c(Cl)c3)(C(F)(F)F)C2)c2c1OCC2 [A-1, N-[[4-[(5S)-5-(3,5-dichloro-4-fluorophenyl)-5-(trifluoromethyl)-4H-isoxazol-3-yl]-2,3-dihydrobenzofuran-7-yl]methyl]propanamide]
mortality at 0.0078125 µg/mL [1]: 0% | mortality at 0.015625 µg/mL [1]: 0% | mortality at 0.03125 µg/mL [1]: 0% | mortality at 0.0625 µg/mL [1]: 80% | mortality at 0.125 µg/mL [1]: 100%

CNC(=O)c1cc(Cl)cc(C)c1NC(=O)c1cc(Br)nn1-c1ncccc1Cl [B-43, chlorantraniliprole]
mortality at 0.00390625 µg/mL [1]: 0% | mortality at 0.0078125 µg/mL [1]: 0% | mortality at 0.015625 µg/mL [1]: 0% | mortality at 0.03125 µg/mL [1]: 0% | mortality at 0.0625 µg/mL [1]: 0% | mortality at 0.125 µg/mL [1]: 0%

C[C@]1(COC(=O)C2CC2)[C@@H]2C[C@H](O)[C@@]3(C)Oc4cc(-c5cccnc5)oc(=O)c4[C@H](O)[C@@H]3[C@@]2(C)CC[C@@H]1OC(=O)C1CC1 [B-134, afidopyropen]
Mortality (%) Observed (%) [4]: 0% | Mortality (%) Observed (%) [5]: 0% | Mortality (%) Observed (%) [2]: 0% | Mortality (%) Observed (%) [3]: 0% | Mortality (%) Observed (%) [6]: 0% | Mortality (%) Observed (%) [7]: 0% | Mortality (%) Observed (%) [8]: 0% | Mortality (%) Observed (%) [9]: 0%

CCN(C(=O)c1cnn(C(C)C(C)C)c1C)c1ccnnc1 (stereo not shown) [B-133, dimpropyridaz]
Mortality (%) Observed (%) [3]: 0% | Mortality (%) Observed (%) [6]: 0% | Mortality (%) Observed (%) [7]: 0% | Mortality (%) Observed (%) [8]: 0% | Mortality (%) Observed (%) [9]: 0%

C[n+]1c([O-])c(-c2ccccc2)c(=O)n2c1SC[C@@H]2c1cnc(Cl)s1 [B-5, fenmezoditiaz]
Mortality (%) Observed (%) (single component alone at 0.488281 mg/L, 3 days after infestation): 0% | Mortality (%) Observed (%) (single component alone at 0.976562 mg/L, 3 days after infestation): 0% | Mortality (%) Observed (%) [4]: 0% | Mortality (%) Observed (%) [5]: 0% | Mortality (%) Observed (%) [2]: 0%

— patent US20250143304A1, “INSECT, ACARINA AND NEMATODE PEST CONTROL” (SYNGENTA CROP PROTECTION AG, priority 2022, published 2025)
